# Legend:
# [1] = molecular target: T1, 5-HT2a recombinant receptor (Homo sapiens, UniProt P28223); assay: Aequorin cell line functional assay; type: cell-based; details: human recombinant cell lines; FIG. 1
# T1 construct: expressed in transfected cells
# Procedure: (§1) Aequorin cell lines expressing the 5-HT2a, 5-HT2b and 5-HT2c non-edited (ne) recombinant receptors were used to evaluate the functional activity of eltoprazine. Aequorin cells grown 18 h prior to the test in media without antibiotics were detached by gentle flushing with PBS-EDTA (5 mM EDTA), recovered by centrifugation and resuspended in “assay buffer” (DMEM/HAM's F12 with HEPES+0.1% BSA protease free). Cells were incubated at room temperature for at least 4 h with Coelenterazine h (Molecular Probes). The reference agonist used were 5-HT and α-methyl-5-HT. For agonist testing, 50 μl of cell suspension were injected on 50 μl of test compound or reference agonist plated in a 96-well plate. The resulting emission of light was recorded using the Hamamatsu Functional Drug Screening System 6000 (FDSS 6000).
# [2] = molecular target: T2, 5-HT2c non-edited (ne) recombinant receptor (Homo sapiens, UniProt P28335); assay: Aequorin cell line functional assay; type: cell-based; details: human recombinant cell lines; FIG. 1
# T2 construct: expressed in transfected cells
# T2 sequence (P28335 33-458): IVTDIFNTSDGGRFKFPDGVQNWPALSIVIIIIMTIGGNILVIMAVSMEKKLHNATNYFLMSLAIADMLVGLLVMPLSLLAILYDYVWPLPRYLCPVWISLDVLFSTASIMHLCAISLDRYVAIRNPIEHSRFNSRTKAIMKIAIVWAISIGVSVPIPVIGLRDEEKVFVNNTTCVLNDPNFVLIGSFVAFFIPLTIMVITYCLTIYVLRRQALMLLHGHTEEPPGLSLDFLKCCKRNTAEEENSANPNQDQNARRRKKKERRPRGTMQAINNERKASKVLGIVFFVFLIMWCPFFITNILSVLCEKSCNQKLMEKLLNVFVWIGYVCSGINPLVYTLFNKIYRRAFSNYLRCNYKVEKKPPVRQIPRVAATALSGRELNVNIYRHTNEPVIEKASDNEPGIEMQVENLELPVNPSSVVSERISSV
# Procedure: as §1
# T1 sequence (P28223 whole entry): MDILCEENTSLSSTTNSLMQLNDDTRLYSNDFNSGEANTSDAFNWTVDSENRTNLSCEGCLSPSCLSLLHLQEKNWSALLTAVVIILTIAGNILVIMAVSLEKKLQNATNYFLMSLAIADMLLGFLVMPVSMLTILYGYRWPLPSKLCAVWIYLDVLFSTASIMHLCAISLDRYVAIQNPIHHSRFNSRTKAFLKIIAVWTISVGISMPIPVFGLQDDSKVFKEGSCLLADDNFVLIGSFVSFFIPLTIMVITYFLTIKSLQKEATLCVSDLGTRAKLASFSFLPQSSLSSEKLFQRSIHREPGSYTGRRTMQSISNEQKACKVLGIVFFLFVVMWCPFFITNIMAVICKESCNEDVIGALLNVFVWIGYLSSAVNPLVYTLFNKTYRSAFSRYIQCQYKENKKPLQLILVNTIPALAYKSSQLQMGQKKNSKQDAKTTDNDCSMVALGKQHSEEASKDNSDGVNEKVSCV
smiles,measurement,setting,value
"c1cc2c(c(N3CCNCC3)c1)OCCO2 [eltoprazine, 1-(2,3-dihydro-1,4-benzodioxin-5-yl)piperazine]",functional activity at 5-HT2a receptor,[1],full agonist
same,functional activity at 5-HT2c receptor,[2],full agonist

# Source: patent US20120136005A1, “E[…] THE TREATMENT OF ANXIETY” (MERZ PHARMA GmbH & CO. KGaA, priority 2009, published 2012)
